Read-outs that look alike come from different tables or passages of the source.
Key:
[1] = In vitro cytotoxicity (CC50); type: cell-based; conditions: human, mouse, HepG2 cells and mouse fibroblast NCTC clone 929 cells; mammalian cells, CCK-8; read-out: concentration of cytotoxicity 50% (CC50)
Protocol: Cytotoxicity of the compound tested was assessed by CCK-8 assays as previously described ([71]). […] Following a 24-hour incubation, 10 μl of CCK-8 reagent was added to each well and incubated for 1 hour. The absorbance at 450 nm was measured by a microplate reader. All measurements were repeated three times with duplicates each time.

rabbit erythrocytes = experiment: Hemolysis assay; type: cell-based; conditions: concentration causing 50% hemolysis of red blood cells; 1 hour, 37°C
Protocol: The hemolytic activity of antimicrobial agents was investigated as previously described ([70]). Briefly, the rabbit erythrocytes were centrifuged at 2500 rpm for 3 min before being washed twice with sterile phosphate-buffered saline (PBS) (pH 7.4). Subsequently, the erythrocytes were diluted with PBS to a final concentration of 8% (v/v). The DMSO-dissolved compounds were twofold serially diluted in PBS to achieve a final concentration with DMSO less than 0.5%. […] Sterile PBS and 0.2% Triton X-100 were used as negative and positive controls, respectively. After 1 hour of incubation at 37°C, the tested samples were centrifuged at 2500 rpm for 5 min, and aliquots of the supernatant were added to 96-well microplates. The hemoglobin release was determined by measuring the absorbance at 576 nm using a BioTek multimode reader. The percentage of hemolytic activity was calculated using the following formula: Hemolysis rate (%) = [OD576 (compound) − OD576 (PBS)]/[OD576 (Triton X-100) − OD576 (PBS)] × 100. All measurements were repeated three times with duplicates each time.

[2] = Plasma pharmacokinetic study; type: in vivo, CD-1 mice; conditions: for Mean plasma concentration: LLOQ=10 ng/mL; for bioavailability: dose-normalised AUCINF, read-out: bioavailability (F)
Protocol: Mouse plasma PK studies were performed at Shanghai Ruizhi Chemical Research Co. Ltd. All experiments related to animals were conducted in compliance with the ethical guidelines approved by the Institutional Animal Care and Use Committee (IACUC) of the Shanghai Ruizhi Chemical Research Co. Ltd. Male CD-1 mice (6 to 8 weeks) were treated with the corresponding dose of drugs formulated in 5% glucose solution (D5W) delivered via intravenous injection via tail vein, intraperitoneal injection, or subcutaneous injection. Following administration, approximately 110 μl of blood was taken via facial vein […] at 0.083, 0.25, 0.5, 1, 2, 4, 8, and 24 hours into K2EDTA tubes. Blood samples were placed on ice and centrifuged to obtain plasma samples (2000g, 5 min under 4°C). Plasma samples were stored at approximately −70°C until analysis. The XT17 concentration in plasma PK studies was measured by liquid chromatography–tandem mass spectrometry (LC-MS/MS) assay using an LC-MS/MS-22 (Triple Quad 6500) instrument. Plasma concentrations versus time data and PK parameters were estimated from noncompartmental analysis using WinNonlin 8.2.

E. coli ATCC 25922 = experiment: SYTOX Green uptake assay; type: cell-based, Escherichia coli; conditions: up to 8× MIC
Protocol: The SYTOX Green uptake was measured to explore the inner membrane permeability. The overnight bacteria culture was centrifuged and resuspended in sterile PBS to obtain an OD600 of 0.2. SYTOX Green dye was added to a final concentration of 0.3 μM and incubated for 20 min without being exposed to the light. Fluorescence was measured at excitation and emission wavelengths of 504 and 523 nm, respectively. […] The changes in fluorescence intensity were continuously monitored for 1 hour. All measurements were repeated three times with duplicates each time.

S. aureus ATCC 29213 = experiment: DiSC3(5) membrane depolarization assay; type: cell-based, Staphylococcus aureus; conditions: 1× to 8× MIC
Protocol: The DiSC3(5) assay was carried out to investigate the cytoplasmic membrane depolarization. Mid-log phase bacteria culture was centrifuged and resuspended in sterile Hepes buffer [5 mM (pH 7.4)] to adjust the concentration of bacterial cells to obtain OD600 of 0.1. The bacterial suspension was then incubated with 2 μM DiSC3(5) for 1 hour without being exposed to the light. The change in fluorescence intensity was monitored by a BioTek multidetector microplate reader with an excitation wavelength of 622 nm and an emission wavelength of 670 nm. […] All measurements were repeated three times with duplicates each time.

P. aeruginosa ATCC 9027 = experiment: Time-kill kinetic assay; type: cell-based, Pseudomonas aeruginosa; conditions: 5× MIC
Protocol: The bacterial cultures were standardized to obtain an initial density that ranged from 10^5 to 10^6 cells/ml. The cultures were incubated in a shaking bath at 37°C. Viable counts were determined at 0-, 0.5-, 1.0-, 2.0-, 4.0-, 8.0-, and 24-hour intervals by spotting 10-μl aliquots of serially 10-fold diluted cultures onto Mueller-Hinton agar (MHA) plates. After incubation at 37°C for 24 hours, the bactericidal activity, defined as the ability to reduce the initial inoculum by 3 log10 CFU/ml, was examined for each tested concentration over time. All measurements were repeated three times with duplicates each time.

[3] = male, CD-1, mouse, plasma, ip, 20 mg/kg, ip 20 mg/kg
[4] = male, CD-1, mouse, plasma, iv, 5 mg/kg, IV 5 mg/kg
[5] = male, CD-1, mouse, plasma, sc, 40 mg/kg, sc 40 mg/kg
[6] = male, CD-1, mouse, plasma, IP 20 mg/kg
[7] = male, CD-1, mouse, plasma, IV 5 mg/kg
[8] = male, CD-1, mouse, plasma, SC 40 mg/kg

CC(C)=CCOc1cc(OCCCNC(=N)N)cc2oc3cc(OCCCNC(=N)N)ccc3c(=O)c12 [XT17] gave a CC50 at 24 h [1] greater than 50 µg/mL, an HC50 (rabbit erythrocytes) greater than 200 µg/mL and an MRTIast ([2]; IP 20 mg/kg) of 1.08 h. For the same compound, the Mean plasma concentration ([2]; IP 20 mg/kg, 24 hr) was “BQL”, the Mean plasma concentration ([2]; IV 5 mg/kg, 8 hr) was “BQL” and the Mean plasma concentration ([2]; IV 5 mg/kg, 24 hr) was “BQL”. The MRTIast ([2]; SC 40 mg/kg) was 5.54 h, the “time blood concentrations maintained above MICs” value ([2]; iv single dose 5 mg/kg) was “more than 4 hours” and the bioavailability ([2]; male, CD-1, mouse, plasma, intraperitoneal, ip 20 mg/kg vs iv 5 mg/kg) was 69.7%. It also gave a Cmax ([2]; male, CD-1, mouse, plasma, ip, 20 mg/kg, IP 20 mg/kg) of 18400 ng/mL, a Cmax [2, 3] of 18400 ng/mL and a half-life [2, 3] of 1.02 h. The clearance [2, 4] was 9.68 mL/min/kg, the half-life [2, 4] was 0.478 h and the half-life ([2]; male, CD-1, mouse, plasma, iv, 5 mg/kg, iv 5 mg/kg) was 0.48 h. For the same compound, the Cmax ([2]; male, CD-1, mouse, plasma, iv, 5 mg/kg, iv 5 mg/kg, for bolus iv Cmax = C0) was 20300 ng/mL, the Cmax ([2]; male, CD-1, mouse, plasma, sc, 40 mg/kg, SC 40 mg/kg) was 8680 ng/mL and the Cmax [2, 5] was 8680 ng/mL. The half-life [2, 5] was 4.68 h, the bioavailability ([2]; male, CD-1, mouse, plasma, subcutaneous, sc 40 mg/kg vs iv 5 mg/kg) was 87.3% and the AUC(0-inf) [2, 6] was 24000 ng·h/mL. It also gave an AUC(0-t) [2, 6] of 23900 ng·h/mL, an MRT inf [2, 6] of 1.13 h and a Tmax [2, 6] of 0.25 h. The concentration at 0.083 h [2, 6] was 17500 ng/mL, the concentration at 0.25 h [2, 6] was 18400 ng/mL and the concentration at 0.5 h [2, 6] was 14100 ng/mL. For the same compound, the concentration at 1 h [2, 6] was 9190 ng/mL, the concentration at 2 h [2, 6] was 2770 ng/mL and the concentration at 4 h [2, 6] was 452 ng/mL. For the same compound, the concentration at 8 h ([2]; male, CD-1, mouse, plasma, IP 20 mg/kg, 8 hr) was 90.1 ng/mL, the AUC(0-inf) [2, 7] was 8610 ng·h/mL and the AUC(0-t) [2, 7] was 8590 ng·h/mL. The MRT inf [2, 7] was 0.42 h, the MRT last [2, 7] was 0.412 h and the concentration at 0.083 h [2, 7] was 20300 ng/mL. The concentration at 0.25 h [2, 7] was 7360 ng/mL, the concentration at 0.5 h [2, 7] was 3630 ng/mL and the concentration at 1 h [2, 7] was 1770 ng/mL. It also gave a concentration at 2 h [2, 7] of 282 ng/mL, a concentration at 4 h [2, 7] of 23.3 ng/mL and a Vd ([2]; male, CD-1, mouse, plasma, IV 5 mg/kg, read-out: Vss) of 0.244 L/kg. The AUC(0-inf) [2, 8] was 60100 ng·h/mL, the AUC(0-t) [2, 8] was 58800 ng·h/mL and the MRT inf [2, 8] was 6.07 h. For the same compound, the Tmax [2, 8] was 1 h, the concentration at 0.083 h [2, 8] was 7730 ng/mL and the concentration at 0.25 h [2, 8] was 6690 ng/mL. For the same compound, the concentration at 0.5 h [2, 8] was 7340 ng/mL, the concentration at 1 h [2, 8] was 8680 ng/mL and the concentration at 2 h [2, 8] was 4620 ng/mL. It also gave a concentration at 4 h [2, 8] of 3560 ng/mL, a concentration at 8 h ([2]; male, CD-1, mouse, plasma, SC 40 mg/kg, 8 hr) of 2810 ng/mL and a concentration at 24 h ([2]; male, CD-1, mouse, plasma, SC 40 mg/kg, 24 hr) of 188 ng/mL. The “time blood concentrations maintained above MICs” value ([2]; sc single dose 40 mg/kg) was “more than 8 hours”, the “SYTOX Green fluorescence intensity (cytoplasmic membrane permeabilization)” value (E. coli ATCC 25922) was “did not show a notable increase” and the “DiSC3(5) fluorescence intensity (membrane depolarization)” value (S. aureus ATCC 29213) was “no changes in fluorescence intensity”. For the same compound, the “log bacterial load reduction” value (P. aeruginosa ATCC 9027; 1 hour) was 3.24 log and the bacterial regrowth (P. aeruginosa ATCC 9027; at 24 hours) was “no bacterial regrowth was observed”.
